From PubChem BioAssay AID330 (DTP/NCI, 2004) come the findings set out here.

Several values for one entry are separate records, joined by “and”; a condition that tells them apart may be missing. Equal entries are not always repeated. Toxic doses and inconclusive results are not listed.

This assay relates to P388 leukemia ip, CD2F1 mice, survival T/C. As to the kind of experiment: NCI In Vivo Anticancer Drug Screen. Data for tumor model P388 Leukemia (intraperitoneal) in CD2F1 (CDF1) mice. The conditions noted are these: endpoint: median survival time, higher = longer survival. An outline of the steps:
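Mice carrying the transplanted tumor received test compound or vehicle. Survival was recorded in each group, and the value is the treated-group measurement divided by that of the vehicle-treated control group.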

The mark [1] stands for this setting: dose: 60.0 mg/kg/injection, schedule: Q01DX005 (ip), vehicle: saline.
Where [2] appears, read: dose: 120.0 mg/kg/injection, schedule: Q01DX005 (ip), vehicle: saline.
Where [3] appears, read: dose: 60.0 mg/kg/injection, schedule: Q01DX005 (ip), vehicle: saline with Tween-80.
Setting [4] is: dose: 120.0 mg/kg/injection, schedule: Q01DX005 (ip), vehicle: saline with Tween-80.
Where [5] appears, read: dose: 240.0 mg/kg/injection, schedule: Q01DX005 (ip), vehicle: saline with Tween-80.
Setting [6] is: dose: 12.5 mg/kg/injection, schedule: Q01DX005 (ip), vehicle: Klucel (hydroxypropylcellulose) (HPC).
[7] abbreviates: dose: 25.0 mg/kg/injection, schedule: Q01DX005 (ip), vehicle: Klucel (hydroxypropylcellulose) (HPC).
The mark [8] stands for this setting: dose: 50.0 mg/kg/injection, schedule: Q01DX005 (ip), vehicle: Klucel (hydroxypropylcellulose) (HPC).
Setting [9] is: dose: 25.0 mg/kg/injection, schedule: Q01DX009 (ip), vehicle: saline with Tween-80.
Setting [10] is: dose: 50.0 mg/kg/injection, schedule: Q01DX009 (ip), vehicle: saline with Tween-80.
Setting [11] is: dose: 100.0 mg/kg/injection, schedule: Q01DX005 (ip), vehicle: Klucel (hydroxypropylcellulose) (HPC).

On to `Cc1ccc(S(=O)(=O)N/N=C/c2c(-c3ccc(-c4ccccc4)cc3)nc3sccn23)cc1`, for which the T/C was 94 % of control (dose: 100.0 mg/kg/injection, schedule: Q01DX001 (ip), vehicle: Klucel (hydroxypropylcellulose) (HPC)); 86 % of control (dose: 200.0 mg/kg/injection, schedule: Q01DX001 (ip), vehicle: Klucel (hydroxypropylcellulose) (HPC)); 88 % of control (dose: 400.0 mg/kg/injection, schedule: Q01DX001 (ip), vehicle: Klucel (hydroxypropylcellulose) (HPC)).
Turning to `CC(C)(C)N=C(CCN1CCN(CCC(=NC(C)(C)C)Nc2c(Cl)cccc2Cl)CC1)Nc1c(Cl)cccc1Cl`, the T/C is 96 % of control (dose: 50.0 mg/kg/injection, schedule: Q01DX009 (ip), vehicle: Klucel (hydroxypropylcellulose) (HPC)); 95 % of control (dose: 100.0 mg/kg/injection, schedule: Q01DX009 (ip), vehicle: Klucel (hydroxypropylcellulose) (HPC)); 92 % of control (dose: 200.0 mg/kg/injection, schedule: Q01DX009 (ip), vehicle: Klucel (hydroxypropylcellulose) (HPC)).
For the compound `CCN(CC)C(=O)OC1Cc2ccccc2CCc2ccccc2C1`, the T/C runs as follows: (dose: 100.0 mg/kg/injection, schedule: Q04DX003 (ip), vehicle: Klucel (hydroxypropylcellulose) (HPC)) 103 % of control; (dose: 200.0 mg/kg/injection, schedule: Q04DX003 (ip), vehicle: Klucel (hydroxypropylcellulose) (HPC)) 101 % of control; (dose: 400.0 mg/kg/injection, schedule: Q04DX003 (ip), vehicle: Klucel (hydroxypropylcellulose) (HPC)) 101 % of control.
For the compound `COc1cc(C(Nc2ccccn2)c2cc3c(cc2O)OCO3)cc(OC)c1O` (stereo not drawn), the T/C is 91 % of control (dose: 60.0 mg/kg/injection, schedule: Q01DX005 (ip), vehicle: Klucel (hydroxypropylcellulose) (HPC)); 91 % of control (dose: 120.0 mg/kg/injection, schedule: Q01DX005 (ip), vehicle: Klucel (hydroxypropylcellulose) (HPC)); 94 % of control (dose: 240.0 mg/kg/injection, schedule: Q01DX005 (ip), vehicle: Klucel (hydroxypropylcellulose) (HPC)).
As to `COc1ccn(CC2(C)CO2)c(=O)n1` (stereo not drawn), the T/C is 103 % of control under setting [1]; 106 % of control under setting [2]; 104 % of control (dose: 240.0 mg/kg/injection, schedule: Q01DX005 (ip), vehicle: saline).
As to `O=CN(Nc1ccccc1)C(=O)Nc1ccc(Cl)c(Cl)c1`, the T/C is 96 % of control (dose: 100.0 mg/kg/injection, schedule: Q04DX002 (ip), vehicle: Klucel (hydroxypropylcellulose) (HPC)); 97 % of control (dose: 200.0 mg/kg/injection, schedule: Q04DX002 (ip), vehicle: Klucel (hydroxypropylcellulose) (HPC)); 104 % of control (dose: 400.0 mg/kg/injection, schedule: Q04DX002 (ip), vehicle: Klucel (hydroxypropylcellulose) (HPC)).
On to `CCO/C=C1/N=C(c2cc(Cl)cc([N+](=O)[O-])c2)OC1=O`, for which the T/C under setting [3] was 101 % of control, the T/C under setting [4] was 101 % of control and the T/C under setting [5] is 93 % of control.
For `c1ccc2ccccc2c1`, the T/C was 100 % of control (dose: 50.0 mg/kg/injection, schedule: Q01DX009 (ip), vehicle: other); 104 % of control (dose: 100.0 mg/kg/injection, schedule: Q01DX009 (ip), vehicle: other); 107 % of control (dose: 200.0 mg/kg/injection, schedule: Q01DX009 (ip), vehicle: other).
As for `CN(C)c1ccc(/C=C2\C=Cc3ccccc32)cc1`, the T/C (dose: 100.0 mg/kg/injection, schedule: Q04DX003 (ip), vehicle: saline with Tween-80) is 109 % of control; the T/C (dose: 200.0 mg/kg/injection, schedule: Q04DX003 (ip), vehicle: saline with Tween-80) was 90 % of control; the T/C (dose: 400.0 mg/kg/injection, schedule: Q04DX003 (ip), vehicle: saline with Tween-80) is 90 % of control.
Turning to `CCOC(=O)c1cc2cc3c4c(c2oc1=O)CCCN4CCC3`, the T/C is 106 % of control under setting [6]; 110 % of control under setting [7]; 107 % of control and 111 % of control under setting [8].
Consider `COc1cc(C(C)c2cc3c(cc2OCC(C)=O)OCO3)cc(OC)c1OC` (stereo not drawn), for which the T/C was 105 % of control under setting [3], 97 % of control under setting [4] and 106 % of control under setting [5].
Consider `CCC1(O)CC(OC2CC(N(C)C)C(OC3CC(O)C(O)C(C)O3)C(C)O2)c2c(cc3c(c2O)C(=O)c2c(O)ccc(O)c2C3=O)C1C(=O)OC` (stereo not drawn), for which the T/C (dose: 3.13 mg/kg/injection, schedule: Q04DX003 (ip), vehicle: Klucel (hydroxypropylcellulose) (HPC)) is 100 % of control; the T/C (dose: 6.25 mg/kg/injection, schedule: Q04DX003 (ip), vehicle: Klucel (hydroxypropylcellulose) (HPC)) is 110 % of control; the T/C (dose: 50.0 mg/kg/injection, schedule: Q04DX003 (ip), vehicle: Klucel (hydroxypropylcellulose) (HPC)) was 120 % of control.
With `Clc1ccc(N=C2N=C(Nc3ccc(Cl)cn3)c3ccccc32)nc1`, the T/C (dose: 12.5 mg/kg/injection, schedule: Q01DX009 (ip), vehicle: saline with Tween-80) was 86 % of control; the T/C under setting [9] is 89 % of control; the T/C under setting [10] is 87 % of control and 95 % of control.
For `NC(CCC(=O)NC(CSCNC(=O)Nc1ccc(Cl)cc1)C(=O)NCC(=O)O)C(=O)O` (stereo not drawn), the T/C was 97 % of control under setting [1] and 97 % of control under setting [2].
`NC1CCCCCCC1`: the T/C is 94 % of control (dose: 50.0 mg/kg/injection, schedule: Q01DX005 (ip), vehicle: saline); 103 % of control (dose: 100.0 mg/kg/injection, schedule: Q01DX005 (ip), vehicle: saline); 117 % of control (dose: 200.0 mg/kg/injection, schedule: Q01DX005 (ip), vehicle: saline).
`COc1ccc2c(c1)CCc1c-2nc[nH]c1=O`: the T/C is 103 % of control (dose: 100.0 mg/kg/injection, schedule: Q04DX002 (ip), vehicle: saline with Tween-80); 96 % of control (dose: 200.0 mg/kg/injection, schedule: Q04DX002 (ip), vehicle: saline with Tween-80); 96 % of control (dose: 400.0 mg/kg/injection, schedule: Q04DX002 (ip), vehicle: saline with Tween-80).
For the compound `CCP(CC)(c1ccccc1)=c1c(=O)c(Cl)c(Cl)c(=O)c1=O`, the T/C by setting is: (dose: 6.25 mg/kg/injection, schedule: Q01DX005 (ip), vehicle: Klucel (hydroxypropylcellulose) (HPC)) 100 % of control; under setting [6], 102 % of control; under setting [7], 100 % of control.
For `O=c1[nH]cnc2c1cnn2CN1CCOCC1`, the T/C under setting [7] was 106 % of control; the T/C under setting [8] was 117 % of control and 90 % of control; the T/C under setting [11] is 120 % of control.
As to `COc1ccc(N2C(=O)c3ccc4c5ccc6c7c(ccc(c8ccc(c3c48)C2=O)c75)C(=O)N(C)C6=O)cc1`, the T/C was 97 % of control under setting [8]; 98 % of control under setting [11]; 105 % of control (dose: 200.0 mg/kg/injection, schedule: Q01DX005 (ip), vehicle: Klucel (hydroxypropylcellulose) (HPC)).
In the case of `Cc1ccc(N)c(O)c1`, the T/C was 102 % of control and 105 % of control (dose: 100.0 mg/kg/injection, schedule: Q01DX009 (ip), vehicle: saline); 100 % of control and 103 % of control (dose: 200.0 mg/kg/injection, schedule: Q01DX009 (ip), vehicle: saline); 101 % of control and 113 % of control (dose: 400.0 mg/kg/injection, schedule: Q01DX009 (ip), vehicle: saline); 115 % of control (dose: 600.0 mg/kg/injection, schedule: Q01DX009 (ip), vehicle: saline).
For `CC1=CCCC1C1C=CCC1` (stereo not drawn) (tested in a mixture with another compound), the T/C was 102 % of control under setting [9]; 103 % of control and 105 % of control under setting [10]; 116 % of control (dose: 100.0 mg/kg/injection, schedule: Q01DX009 (ip), vehicle: saline with Tween-80).
`CC(=O)c1c(-c2ccc(Cl)cc2)c(-c2ccc(Cl)cc2)nn(CCN)c1=O`: the T/C was 100 % of control (dose: 12.5 mg/kg/injection, schedule: Q01DX005 (ip), vehicle: saline with Tween-80); 98 % of control (dose: 25.0 mg/kg/injection, schedule: Q01DX005 (ip), vehicle: saline with Tween-80); 98 % of control and 95 % of control (dose: 50.0 mg/kg/injection, schedule: Q01DX005 (ip), vehicle: saline with Tween-80).
In the case of `COC(=O)c1nc(N)nc(C(=O)OC)c1C(=O)c1ccc(Cl)c(Cl)c1`, the T/C runs as follows: under setting [3], 100 % of control; under setting [4], 94 % of control.
